These results are taken from article PMC5829097, “Designing Antibacterial Peptides with Enhanced Killing Kinetics” (Frontiers in Microbiology, 2018).

The subject of data set [1] is Escherichia coli ATCC 25922. Nature of the data set: Antimicrobial assay, microdilution method (MIC). Conditions: MH broth, 10^5-10^6 c.f.u/ml, 18 h, 37°C, OD600 nm, tested 1 to 100 μM, average range from triplicates of three independent experiments. The data set is classed as cell-based. The protocol:
(§1) Antimicrobial activity of peptides against Gram-positive (Staphylococcus aureus ATCC 25923, S. aureus ATCC 6538P) and Gram-negative (Escherichia coli ATCC 25922, E. coli ATCC 8739) bacteria were determined by microdilution method. Bacterial cultures were grown in Mueller–Hinton (MH) broth at 37°C for 18 h on a shaker to obtain an OD600 nm of 0.8. The cultures were diluted in MH broth to obtain a cell density of 10^5-10^6 c.f.u/ml. The peptides were serially diluted in MH broth. The serially diluted peptides were inoculated with bacterial cultures in 1:1 ratio in sterile 96-well microtiter plates. A bovine myeloid antimicrobial peptide, BMAP28(1–18), was used as the positive control. The peptides were tested for antimicrobial activity in the range from 1 to 100 μM. The MICs of the peptides were determined by OD600 nm measurements after 18 h of incubation at 37°C. Bacterial strains were purchased from National Collection of Industrial Microorganisms, National Chemical Laboratories, Pune, India. The percentage death evaluated for S. aureus ATCC 25923 and E. coli ATCC 8739 after 18 h incubation was fitted to a Hill equation and the parameters namely Hill coefficient (n) and the half-saturation constant (K) were evaluated (Details in Supplementary File).
Background: Broth dilution looks for growth in wells or tubes with falling amounts of substance.

Data set [2] has as its system Staphylococcus aureus ATCC 6538P. Nature of the data set: Antimicrobial assay, microdilution method (MIC). In kind it is cell-based. Particulars: value marked *: 50% inhibition, MH broth, 18 h, 37°C, OD600 nm, triplicates of three independent experiments. The protocol: as §1
Data set [3] relates to Escherichia coli ATCC 8739. The experiment in a line: Antimicrobial assay, microdilution method (MIC; % death fitted to Hill equation). In kind it is cell-based. Particulars: for Hill coefficient n, Gram −ve (E. coli 8739): Hill fit of % death after 18 h incubation vs peptide concentration; for EC50: Hill fit of % death after 18 h incubation, peptide concentration for 50% death, peptides tested in μM, unit inferred, read-out: half saturation constant K, Gram −ve (E. coli 8739). The protocol:
as §1
(§2) The % death value after 18h incubation of the organisms (E. coli ATCC 8739 and S. aureus ATCC 25923) with the peptides was fitted using the Hill equation: […]
(§3) The percentage death was fitted to a sigmoidal input-output relationship through Hill's Equation as given below.
(§4) Here, Y is the normalized percentage death taking values in the range [0,1] and X is the concentration of the antimicrobial peptide. The data for value of Y was obtained through experiments. It can be noted that the Hill's Equation has two parameters namely, n and K, Hill's Coefficient and Half Saturation Constant, also referred to as K0.5. The values of the parameters are specific to a system. The Hill Equation can be linearized as follows.
(§5) The linear equation was fitted by plotting LHS of the above equation versus ln(X). The slope of the best fit line equation (linear regression) will yield the value of Hill's coefficient and the value of the intercept can be further used to evaluate the value of the half saturation constant, K. The Hill coefficient (n) determines the sensitivity of the response (steepness of the sigmoidal curve) and the half saturation constant (K) determines the threshold input needed for the response (equivalent to EC50 value).

The test system of data set [4] is Staphylococcus aureus ATCC 25923. The data set is described as above. Conditions: for Hill coefficient n, Gram +ve (S. aureus 25923): Hill fit of % death after 18 h incubation vs peptide concentration; for EC50: Hill fit of % death after 18 h incubation, peptide concentration for 50% death, peptides tested in μM, unit inferred, read-out: half saturation constant K, Gram +ve (S. aureus 25923). In kind it is cell-based. The method, then:
as §1, §2, §3, §4, §5

Another data set relates to human RBCs. The experiment in a line: Cytotoxicity assay against human erythrocytes (hemolysis). In kind it is cell-based. Conditions: pH 7.4. The protocol:
Hemolysis was determined by incubating 10% (v/v) suspension of human RBCs in PBS (pH 7.4) with different concentrations of peptides [BMAP28(1–18), P1, and P1m] ranging from 1.56 to 100 μM at 37°C for 1 h. RBCs incubated with 0.1% Triton X-100 was used as the positive control and RBCs incubated with PBS was used as blank. The incubated mixtures were centrifuged at 500 × g for 5 min. The hemolytic activity of the peptides was determined by measuring the absorbance of the supernatant at 541 nm. The percent hemolysis was calculated using the equation:
H=(absorbance of sample−absorbance of blank/absorbance of positive control−absorbance of blank)×100
The percentage hemolysis (H) was fitted using a Hill function with respect to the peptide concentration.
The % hemolysis was fitted using Hill equation to obtain n and K values. These values are also referred in Table 4 in the main text.

A further data set concerns S. aureus ATCC 25923. Nature of the data set: Killing kinetics assay (time-kill, first order death rate constant). The data set is classed as cell-based, Staphylococcus aureus. Particulars: for behavior of the kinetic (death rate) constant as a function of peptide concentration: S. aureus time-kill, concentrations up to 50 μM; for Hills coefficient of death rate constant vs peptide concentration (initial saturating phase) / half saturation constant of death rate constant vs peptide concentration (initial saturating phase): fit Equations 1-3, S. aureus ATCC 25923. The protocol:
Overnight grown culture (S. aureus ATCC 25923) was diluted in fresh MH broth and allowed to grow to obtain OD600 nm of 0.8. The culture was diluted in MH broth to obtain a cell density of 10^5-10^6 c.f.u/ml and was incubated with the peptides at various concentrations within the MIC range for each peptide [BMAP28(1–18), P1, and P1m] till a highest concentration of 50 μM. Aliquots were drawn at specific time intervals and plated after dilution on MH agar plates. The plates were incubated at 37°C for 24 h to obtain viable colonies for calculating the initial death rates of the peptides. The kinetic rate constant was determined by evaluation of c.f.u count at various time points ranging from 10 to 45 min. First order death rate constant was determined by plotting log(c.f.u) vs. time and the slope of linear fit yielded the death rate constant. Four to five time points were used to determine the rate constant. Only two time points were considered for death rate constant at very high concentration (50 μM) as complete killing occurred in the first 15 min.
To further study the effect of mutation on behaviour of peptides, the first order rate constant for the death of S. aureus ATCC 25923 was determined by performing time-kill assays using BMAP28(1-18), P1 and P1m. The following equations were obtained by the fit.
In the first phase, the rate constant saturated to about 28.5 h^-1 up to a peptide concentration of 30µM. […] The behaviour of the rate constant was captured as a product of two functions, namely, an initial region represented by Hills Equation indicating a saturating behaviour, and exponential increase post saturation (Equation 1-3). […] A Hills coefficient greater than 2 indicates a sensitive response requiring only about less than 9 fold change in the concentration to reach saturation. But a lower half saturation constant for BMAP28(1-18) indicates higher affinity of binding of the peptides to the cell membrane for BMAP28(1-18) compared to that for P1m. […] This dramatic effect was caused due to a single change in the residue of an amino-acid. It may be possible that the second phase for P1 may occur at a higher concentration of peptide.
The initial rate constant was determined by fitting the first order death kinetics. The CFU (C) of the organism/cell was determined experimentally in time. The first order rate constant, k, was evaluated by linear fitting the equation given below: […]

Where [5] appears, read: value marked *: 50% inhibition, microdilution, MH broth, 18 h, 37°C, OD600 nm, triplicates of three independent experiments.
The mark [6] stands for this setting: microdilution, MH broth, 10^5-10^6 c.f.u/ml, 18 h, 37°C, OD600 nm, tested 1 to 100 μM, average range from triplicates of three independent experiments.

Marks after values point to notes of the source that are not given here. Square brackets hold non-standard residues; d marks the D form. Peptide text beside a SMILES is read from it. 12Ado = NCCCCCCCCCCCC(=O)O

Consider “CILRWLARKIPWHAKKYG [P2, designed 18-residue MAP-family-like peptide, N-terminal amino-lauric acid and C-terminal amide]”, for which the “MIC, E. coli 25922” value in data set [1] was “NA (NA-inactive upto 100μM)”. The “MIC, S. aureus 6538 P (* 50% inhibition)” value in data set [2] is 12.5–25^* μM. The “MIC, E. coli 8739 (* 50% inhibition)” value in data set [3] (setting [5]) is listed as 50–100^* μM. Moreover, the “MIC, S. aureus 25923 (* 50% inhibition)” value in data set [4] (setting [5]) is 50–100^* μM.

“VFLRILVRKIAPGVKKYG [P3, designed 18-residue MAP-family-like peptide, N-terminal amino-lauric acid and C-terminal amide]”: in data set [1], the “MIC, E. coli 25922” value is “NA (NA-inactive upto 100μM)”. Also, in data set [2], the “MIC, S. aureus 6538 P (* 50% inhibition)” value is recorded as 50–100^* μM. Also, the “MIC, E. coli 8739” value in data set [3] (setting [6]) was “NA (NA-inactive upto 100μM)”. Further, the “MIC, S. aureus 25923” value in data set [4] (setting [6]) is “NA (NA-inactive upto 100μM)”.

For the molecule `CC[C@H](C)[C@H](NC(=O)[C@H](CCCCN)NC(=O)[C@H](CCCNC(=N)N)NC(=O)CNC(=O)[C@H](CC(C)C)NC(=O)[C@H](CO)NC(=O)[C@H](CCCNC(=N)N)NC(=O)[C@H](CC(C)C)NC(=O)CNC(=O)CNC(=O)CCCCCCCCCCCN)C(=O)N[C@@H](CC(C)C)C(=O)N[C@@H](CCCNC(=N)N)C(=O)N[C@@H](C)C(=O)N[C@@H](Cc1c[nH]c2ccccc12)C(=O)N[C@@H](CCCCN)C(=O)N[C@@H](CCCCN)C(=O)N[C@@H](Cc1ccc(O)cc1)C(=O)NCC(N)=O` [BMAP28(1–18), reference compound] (H-[12Ado]GGLRSLGRKILRAWKKYG-NH2; N-terminus and C-terminus assumed), in data set [3], the “Hill coefficient n, Gram −ve (E. coli 8739)” value is 3.07 and the EC50 was 2.2 µM. Moreover, in data set [4], the “Hill coefficient n, Gram +ve (S. aureus 25923)” value was 2.5 and the EC50 worked out at 1.4 µM. The “half saturation constant K, Human RBCs” value with human RBCs is reported as 61.4. Moreover, in the data set on S. aureus ATCC 25923, the “behavior of the kinetic (death rate) constant as a function of peptide concentration” value is “biphasic behavior”, the “Hills coefficient of death rate constant vs peptide concentration (initial saturating phase)” value is on record as 2.4 and the “half saturation constant of death rate constant vs peptide concentration (initial saturating phase)” value is reported as 3.1 µM. The “time sufficient to reduce the cell number by half” value with S. aureus ATCC 25923 (at 50µM of the peptide) is reported as “about 40 s”. Besides, the “death rate constant at 50µM of the peptide” value in the data set with S. aureus ATCC 25923 (first order, slope of log(c.f.u) vs time, 50 µM, two time points) is given as “about 60 h^-1”.

Take `CC[C@H](C)[C@H](NC(=O)CNC(=O)[C@H](CC(C)C)NC(=O)[C@@H](NC(=O)[C@@H](NC(=O)[C@H](CCCCN)NC(=O)[C@H](CCCNC(=N)N)NC(=O)[C@H](C)NC(=O)[C@H](CC(C)C)NC(=O)[C@H](C)NC(=O)[C@H](CCCNC(=N)N)NC(=O)[C@H](CC(C)C)NC(=O)[C@H](CC(C)C)NC(=O)[C@@H](NC(=O)CCCCCCCCCCCN)C(C)C)[C@@H](C)CC)[C@@H](C)O)C(=O)N[C@@H](CCCCN)C(=O)N[C@@H](CCCCN)C(=O)N[C@@H](Cc1ccc(O)cc1)C(=O)NCC(N)=O` [P1] (H-[12Ado]VLLRALARKITLGIKKYG-NH2): in data set [3], the “Hill coefficient n, Gram −ve (E. coli 8739)” value is reported as 1.02 and the EC50 was found to be 26.6 µM. Besides, in data set [4], the “Hill coefficient n, Gram +ve (S. aureus 25923)” value was 1.2 and the EC50 worked out at 3 µM. Moreover, the “half saturation constant K, Human RBCs” value with human RBCs was determined as 170. In the data set on S. aureus ATCC 25923, the “behavior of the kinetic (death rate) constant as a function of peptide concentration” value is listed as “monophasic behavior”, the “Hills coefficient of death rate constant vs peptide concentration (initial saturating phase)” value came to 2.3 and the “half saturation constant of death rate constant vs peptide concentration (initial saturating phase)” value was found to be 8.4 µM.
